Reference: US20060040883A1, “Methods for treating cancer using anti-Wnt2 monoclonal antibodies and siRNA” (The Regents of the University of California, priority 2004, published 2006)

Assays:
MS1 mesothelioma cells = experiment: Proliferation assay (tetrazolium conversion) in MS1 cells; format: cell-based, human; details: three days
Description: Alimta® (MTA) was supplied by Eli Lilly (Indianapolis, Ind.). Alimta® was diluted in sterile physiological solution at a concentration of 10 mg/ml. The stock was divided into aliquots, stored at −80° C., and diluted in culture medium before each experiment. Wnt2 antibody was stored at 4° C. and used as previously described. Cell proliferation was determined by measuring metabolic activity of tetrazolium conversion (Cell Titer 96 assay, Promega, Madison, Wis.). Briefly, 5,000 cells were plated per well in a 96-well plate and culture medium containing increasing concentrations of both drugs was added. Plates were incubated at 37° C. for 72 hours in a CO2 incubator. Then a solubilization/stop solution was added and the absorbance was recorded with a […] at a wavelength of 570 nm. Each experiment was repeated at least 3 times in triplicate.
The effects of the anti-Wnt2 monoclonal antibody on cell proliferation were assessed and compared with the effects of Alimta®. Alimta® (LY231514, MTA, pemetrexed) is a novel multifunctional antifolate antimetabolite (Hanauske Lung Cancer 45 Suppl 1:S121-4 (2004)). […] Alimta® is now considered a standard in the treatment of surgically non-amenable mesothelioma. […] Three days later the cell proliferation was assessed by measuring the metabolic activity of cellular enzyme (here the tetrazolium conversion).

JNK = JNK activity; format: cell-based; details: inhibition of Dvl by blocking CK-2 activity
Description: Through frizzled receptor and dishevelled protein, Wnt signal activates two distinct pathways: the canonical pathway (i.e., β catenin pathway) and the JNK pathway. Dishevelled protein has three highly conserved domains, DIX, PDZ, and DEP. Among them, the DIX and PDZ domains are necessary for the canonical signaling pathway while the DEP domain is important for the activation of JNK pathway. […] Most likely, the activation of JNK after anti-Wnt antibody treatment is through Dvl.

A549, LOX and FEMX = experiment: Specificity control with blocking peptide (apoptosis by flow cytometry); format: cell-based, human; details: 300 μg/ml for 72 hrs, alone
Description: Cells were harvested by trypsinization and processed for determination of cell surface annexin-V and propodium iodide (PI) contents, according to the manufacture's protocol (Annexin V FITC Apoptosis Detection Kit (Oncogene, Cambridge, Mass.); Apotarget (BioSource International)). With the use of Annexin-V-PI double staining regime, three populations of cells are distinguishable in two color flow cytometry: (a) non-apoptotic cells: annexin-V and PI negative; (b) early apoptotic cells with exposed phosphatidylserine but intact cell membranes bound to Annexin V-FITC but excluded propidium iodide; and (c) cells in necrotic or late apoptotic stages were labeled with both Annexin V-FITC and propidium iodide. Then stained cells were immediately analyzed by flow cytometry (FACScan; Decton Dickinson, Franklin Lake, N.J.). TUNEL staining of tumor tissue samples harvested from in vivo experiment was performed using ApopTag Peroxidase In Situ Oligo Ligation Apoptosis Detection Kit (Chemicon International, Temecula, Calif.) according to the manufacturer's protocol.
As a specificity control, induction of apoptosis was examined by using monoclonal Wnt2 antibody blocked by overnight pre-incubation with blocking peptide (30-fold over the antibody) in A549, LOX and FEMX. […] Same dose of blocking peptide (300 μg/ml for 72 hrs) alone had no effect on cell viability.

[1] = system: hepatoma cell lines HepG2 and Hep3B; experiment: Cytotoxic effects in hepatoma cell lines; format: cell-based; details: data not shown

Molecule: Nc1nc2[nH]cc(CCc3ccc(C(=O)N[C@@H](CCC(=O)O)C(=O)O)cc3)c2c(=O)[nH]1 [Alimta®, pemetrexed]
- decrease in cell proliferation (MS1 mesothelioma cells; 1 μg/ml): about 41.9%
- decrease in cell proliferation (MS1 mesothelioma cells; 10 μg/ml): about 42.9%

Molecule: O=c1cc(-c2ccc(O)cc2)oc2cc(O)cc(O)c12 [Apigenin, reference compound]
- JNK activity (JNK): increased JNK activity

Molecule: blocking peptide: peptide pre-incubated with the anti-Wnt2 antibody (30-fold over the antibody) to block it (SSQRQLCHRHPDVMR; UniProt P09544 49-63, looked up, fragment) [reference compound]
- cell viability (A549, LOX and FEMX): no effect

B1: anti-Wnt2 monoclonal antibody: mouse monoclonal IgG1 raised against residues 49-63 of human Wnt2; 17F7.G7 was used in the experiments described (protein)
chain: SWWYMRATGGSSRVMCDNVPGLVSSQRQLCHRHPDVMRAISQGVAEWTAECQHQFRQHRWNCNTLDRDHSLFGRVLLRSSRESAFVYAISSAGVVFAITRACSQGEVKSCSCDPKKMGSAKDSKGIFDWGGCSDNIDYGIKFARAFVDAKERKGKDARALMNLHNNRAGRKAVKRFLKQECKCHGVSGSCTLRTCWLAMADFRKTGDYLWRKYNGAIQVVMNQDGTGFTVANERFKKPTKNDLVYFENSPDYCIRDREAGSLGTAGRVCNLTSRGMDSCEVMCCGRGYDTSHVTRMTKCGCKFHWCCAVRCQDCLEALDVHTCKAPKNADWTTAT
- cytotoxic effects [1]: cytotoxic effects
